# Legend:
# [1] = tested on: PYR/PYL-PP2C protein-protein interactions; assay: Yeast competition screen: reduction of ABA-promoted PYR/PYL-PP2C interaction; assay type: cell-based; details: 100 nM ABA and 100 μM test chemical (1000-fold excess), yeast strains
# Source text: To isolate PYR1 orthogonal receptors, a two-step process was used. First, a large collection of compounds was screened to identify compounds that weakly interact with receptors, defined as such by their ability to displace receptor-bound ABA in competition experiments. Once weak binders were identified, those with the most desirable properties from an end-use perspective were used as targets for iterative mutagenesis and selection schemes. Pre-selection of weak-binding ligands improves the frequency of isolating new receptor proteins, because fewer alterations of the ligand binding site are required to achieve molecular recognition. However, pre-selection is not a prerequisite for success.
# Pre-selection of ligands. 74 structurally diverse agrochemicals were obtained, selected from a larger set of approximately 1500 commercially available agrochemicals. These 74 compounds were tested for their ability to reduce ABA-promoted PYR/PYL-PP2C protein-protein interactions in suitable yeast strains when added at 1000-fold excess relative to ABA (i.e. 100 nM ABA and 100 μM test chemical).
# [2] = target: T1, PYR1 mutant 27-18 (Arabidopsis thaliana, UniProt O49686, K59R/S47P/Y120H); assay: Yeast two-hybrid LacZ reporter assay (pAD-HAB1 YRG-2 strain); assay type: cell-based; details: 1, 5, 10, 25, and 50 μM
# T1 construct: expressed in transfected cells; host or cells: S. cerevisiae YRG-2 expressing pAD-HAB1
# T1 sequence (O49686 whole entry S47P/K59R/Y120H): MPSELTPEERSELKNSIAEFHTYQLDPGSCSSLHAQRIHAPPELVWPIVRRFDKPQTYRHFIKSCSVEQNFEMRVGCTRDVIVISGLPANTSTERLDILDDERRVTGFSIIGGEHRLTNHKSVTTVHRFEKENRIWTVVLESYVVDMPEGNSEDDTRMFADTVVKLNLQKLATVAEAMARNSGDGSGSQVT
# T1 sequence (Q9CAJ0 23-511, stated change not applied, further chain): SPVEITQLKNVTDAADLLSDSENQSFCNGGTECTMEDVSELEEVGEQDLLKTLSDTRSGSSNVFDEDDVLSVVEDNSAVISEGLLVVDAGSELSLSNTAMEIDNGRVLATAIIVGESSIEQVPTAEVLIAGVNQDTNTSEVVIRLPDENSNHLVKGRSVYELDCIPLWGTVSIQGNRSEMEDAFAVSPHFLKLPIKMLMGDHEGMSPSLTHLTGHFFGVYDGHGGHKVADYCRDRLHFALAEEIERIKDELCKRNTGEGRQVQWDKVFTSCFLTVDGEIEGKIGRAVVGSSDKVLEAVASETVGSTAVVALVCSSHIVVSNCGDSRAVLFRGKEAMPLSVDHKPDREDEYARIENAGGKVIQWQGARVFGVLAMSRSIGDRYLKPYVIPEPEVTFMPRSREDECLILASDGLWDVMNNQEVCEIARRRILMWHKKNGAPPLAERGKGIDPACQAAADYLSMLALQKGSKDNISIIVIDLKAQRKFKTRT
# Method: (§1) Plasmids for three representative mutant clones (27-9, 27-18, and 27-36) were isolated from the primary yeast cells and transformed into a pAD-HAB1 expressing YRG-2 reporter strain (Park et al., Science 324:1068-1071 (2009)) in which Ga14 drives expression of a LacZ reporter gene to allow colorimetric indication of agonist response. Fenhexamid was applied at concentrations of 1, 5, 10, 25, and 50 μM. […] Mutant 27-36 was responsive to fenhexamid at 25 and 50 μM concentrations.
# [3] = target: T2, PYR1 mutant 27-36 (Arabidopsis thaliana, UniProt O49686, E12G/E43G/I110S/K59R/N133D); assay: as above; assay type: cell-based; details: 25 and 50 μM (applied 1-50 μM)
# T2 construct: expressed in transfected cells; host or cells: S. cerevisiae YRG-2 expressing pAD-HAB1
# T2 sequence (Q9CAJ0 23-511): as the sequence (Q9CAJ0 23-511, stated change not applied, further chain) above
# T2 sequence (O49686 whole entry E12G/E43G/K59R/I110S/N133D): as the sequence (O49686 whole entry S47P/K59R/Y120H) above, with E12G, E43G, P47S, I110S, H120Y, N133D counted along it
# Method: as §1
# [4] = target: T3, PYR1 mutant 27-9 (Arabidopsis thaliana, UniProt O49686, E153G/K59R/P42S/Y120C); assay: as above; assay type: cell-based
# T3 construct: expressed in transfected cells; host or cells: S. cerevisiae YRG-2 expressing pAD-HAB1
# T3 sequence (O49686 whole entry P42S/K59R/Y120C/E153G): as the sequence (O49686 whole entry S47P/K59R/Y120H) above, with P42S, P47S, H120C, E153G counted along it
# T3 sequence (Q9CAJ0 whole entry, further chain): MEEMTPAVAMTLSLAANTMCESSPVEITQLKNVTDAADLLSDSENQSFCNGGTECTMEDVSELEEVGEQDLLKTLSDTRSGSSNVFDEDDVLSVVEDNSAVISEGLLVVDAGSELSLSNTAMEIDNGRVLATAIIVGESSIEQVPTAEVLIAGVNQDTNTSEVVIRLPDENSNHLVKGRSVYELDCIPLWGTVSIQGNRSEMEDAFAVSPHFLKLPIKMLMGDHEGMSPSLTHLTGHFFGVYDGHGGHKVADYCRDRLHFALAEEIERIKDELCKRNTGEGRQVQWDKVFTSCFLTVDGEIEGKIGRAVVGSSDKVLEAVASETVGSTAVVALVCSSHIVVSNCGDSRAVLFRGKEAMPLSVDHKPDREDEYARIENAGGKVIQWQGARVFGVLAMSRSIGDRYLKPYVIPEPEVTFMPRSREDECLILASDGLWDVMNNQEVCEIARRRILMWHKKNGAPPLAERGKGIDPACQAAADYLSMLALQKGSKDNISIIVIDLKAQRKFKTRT
# Method: as §1
# [5] = tested on: wild-type Columbia plants; assay: Water loss from detached aerial rosettes; assay type: in vivo, Arabidopsis; details: 100 μM spray, approximately 16 hours pretreatment, FIG. 7
# Method: FIG. 7. […] Columbia plants were treated with control, 100 μM fenhexamid, or 100 μM ABA containing solutions. Plants were treated as described in the Examples section below and water loss from aerial rosettes was measured after detachment.
# Transgenic or control (wild-type) plants were grown under a 16 hr light/8 hr dark cycle for 3 weeks and then treated with either 100 μM (+)-ABA, 100 μM fenhexamid, or control (containing 0.1% Tween-20, 0.1% DMSO). ABA treatments were conducted as a positive control. The plants were sprayed in the evening prior to conducting water loss experiments. The next morning, approximately 16 hours post-treatment, the above-ground rosettes of the experimental samples were collected and transferred to weighing dishes, 8 plants per measured sample, and maintained under ˜90-100 μEinstein/m^2 fluorescent light illumination. Four groups of eight plants were measured per time point at 20 min intervals. The experiments were repeated three times over the course of an eight-week interval. […] It should be noted, however, that ABA can activate all of the PYR/PYL receptors in a plant genome (at least 13 in Arabidopsis), while fenhexamid is selectively activating a single engineered receptor, PYL2^K64R,Y124H,M164I,V67I,V114I. […]
compound,measurement,setting,value
CC1(C(=O)Nc2ccc(O)c(Cl)c2Cl)CCCCC1 [fenhexamid],ability to reduce ABA-promoted PYR/PYL-PP2C protein-protein interactions,[1],compete for ABA
same,Response to fenhexamid (LacZ staining),[2],strongly responded
same,Response to fenhexamid (LacZ staining),[3],responsive
same,Response to fenhexamid (LacZ staining),[4]; 1 μM,weakly positive
same,Response to fenhexamid (LacZ staining),"[4]; 5, 10, 25, and 50 μM",strongly responded
same,Water loss from detached rosettes,[5],does not affect water loss

# — US20160312240A1, “MODIFIED PYR/PYL RECEPTORS ACTIVATED BY ORTHOGONAL LIGANDS” (The Regents of the University of California, priority 2010, published 2016)
